The target of the test is T1, Cyclophilin A (Homo sapiens, UniProt P62937).
T1 construct: made in house
The test can be described thus: AlphaLISA inhibition of binding of biotinylated Cyclosporin A to FLAG tagged Cyclophilin A. Particulars: for % signal: AlphaLISA signal; for % signal / % inhibition of CsA binding to Cyclophilin A: test concentration not given; for pIC50: read-out: IC50 value of CsA binding to Cyclophilin A. The method in brief:
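Inhibition of biotin-CsA binding to FLAG-tagged Cyclophilin A read by AlphaLISA (ex 680, em 615 nm). Working stocks were 6 nM biotinylated CsA and 25 nM FLAG-CypA; beads and compound were combined first for 30 min, then protein added for 60 min, all at room temperature in the dark, with DMSO and cyclosporin A controls.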
On the technique in general: Bead proximity is the source of the signal in Alpha formats.

Molecules are shown by their SMILES. pIC50: −log10 of the molar value. Where a SMILES comes first, the peptide text is derived from it. [ ]: non-standard residue; d: D form. MeBmt = C/C=C/C[C@@H](C)[C@@H](O)[C@H](NC)C(=O)O; NMeY = CN[C@@H](Cc1ccc(O)cc1)C(=O)O; NMeF = CN[C@@H](Cc1ccccc1)C(=O)O; NMeI = CC[C@H](C)[C@H](NC)C(=O)O; NMeT = CN[C@H](C(=O)O)[C@@H](C)O; NMeL = CN[C@@H](CC(C)C)C(=O)O; dNMeV = CN[C@@H](C(=O)O)C(C)C; NMeNle = CCCC[C@H](NC)C(=O)O; Tle = CC(C)(C)[C@H](N)C(=O)O; NMeNva = CCC[C@H](NC)C(=O)O; NMeV = CN[C@H](C(=O)O)C(C)C; NMeA = CN[C@@H](C)C(=O)O; dNMeA = CN[C@H](C)C(=O)O; Abu = CC[C@H](N)C(=O)O; Sar = CNCC(=O)O

In general, pIC50 refers to the IC50 on a negative log10 scale, so that one unit is a factor of ten.

T1 sequence (P62937 whole entry, species assumed): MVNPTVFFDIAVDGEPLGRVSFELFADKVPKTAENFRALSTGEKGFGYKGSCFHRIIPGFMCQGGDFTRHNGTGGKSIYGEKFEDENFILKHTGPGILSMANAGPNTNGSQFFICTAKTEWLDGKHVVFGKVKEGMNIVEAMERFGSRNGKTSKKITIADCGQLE

As to `C/C=C/C[C@@H](C)[C@@H](O)[C@H]1C(=O)N[C@@H](CC)C(=O)N(C)CC(=O)N(C)[C@@H](CCC)C(=O)N[C@@H](CC(C)C)C(=O)N(C)[C@@H](CC(C)C)C(=O)N[C@@H](CC(C)C)C(=O)N[C@H](C)C(=O)N(C)[C@@H](CC(C)C)C(=O)N(C)[C@@H](CC(C)C)C(=O)N(C)[C@@H](C(C)C)C(=O)N1C` [Compound C66] (cyclo([MeBmt][Abu][Sar][NMeNva]L[NMeL]L[dA][NMeL][NMeL][NMeV])), the “% signal” value worked out at 10.95%, the pIC50 was more than 5.70 and the “% inhibition of CsA binding to Cyclophilin A” value (“% inhibition of CsA binding” below) is reported as 89.05%.
In the same order, the values of `C/C=C/C[C@@H](C)[C@@H](O)[C@H]1C(=O)N[C@@H](CC)C(=O)N(C)CC(=O)N(C)[C@H](C(C)C)C(=O)N[C@@H](CC(C)C)C(=O)N(C)[C@@H](CC(C)C)C(=O)N[C@@H](CC(C)C)C(=O)N[C@H](C)C(=O)N(C)[C@@H](CC(C)C)C(=O)N(C)[C@@H](CC(C)C)C(=O)N(C)[C@@H](C(C)C)C(=O)N1C` [Compound C67] (cyclo([MeBmt][Abu][Sar][dNMeV]L[NMeL]L[dA][NMeL][NMeL][NMeV])) are 40.86%, more than 5.70 and 59.14%.
For `C/C=C/C[C@@H](C)[C@@H](O)[C@H]1C(=O)N[C@@H](CC)C(=O)N(C)CC(=O)N(C)[C@@H](CCCC)C(=O)N[C@@H](CC(C)C)C(=O)N(C)[C@@H](CC(C)C)C(=O)N[C@@H](CC(C)C)C(=O)N[C@H](C)C(=O)N(C)[C@@H](CC(C)C)C(=O)N(C)[C@@H](CC(C)C)C(=O)N(C)[C@@H](C(C)C)C(=O)N1C` [Compound C68] (cyclo([MeBmt][Abu][Sar][NMeNle]L[NMeL]L[dA][NMeL][NMeL][NMeV])), the “% signal” value was 20.46%, the pIC50 is more than 5.70 and the “% inhibition of CsA binding” value came to 79.54%.
Taken in the same sequence, the figures for `C/C=C/C[C@@H](C)[C@@H](O)[C@H]1C(=O)N[C@@H](CC)C(=O)N(C)CC(=O)N(C)[C@@H]([C@@H](C)CC)C(=O)N[C@@H](C(C)(C)C)C(=O)N(C)[C@@H](C)C(=O)N[C@@H](CC(C)C)C(=O)N[C@H](C)C(=O)N(C)[C@@H](CC(C)C)C(=O)N(C)[C@@H](CC(C)C)C(=O)N(C)[C@@H](C(C)C)C(=O)N1C` [Compound C69] (cyclo([MeBmt][Abu][Sar][NMeI][Tle][NMeA]L[dA][NMeL][NMeL][NMeV])) were 0.03%, more than 5.70 and 99.97%.
In the same order, the values of `C/C=C/C[C@@H](C)[C@@H](O)[C@H]1C(=O)N[C@@H](CC)C(=O)N(C)CC(=O)N(C)[C@@H](C)C(=O)N[C@@H](C(C)(C)C)C(=O)N(C)[C@@H](C)C(=O)N[C@@H](CC(C)C)C(=O)N[C@H](C)C(=O)N(C)[C@@H](CC(C)C)C(=O)N(C)[C@@H](CC(C)C)C(=O)N(C)[C@@H](C(C)C)C(=O)N1C` [Compound C70] (cyclo([MeBmt][Abu][Sar][NMeA][Tle][NMeA]L[dA][NMeL][NMeL][NMeV])) are 0.05%, more than 5.70 and 99.95%.
Taken in the same sequence, the figures for `C/C=C/C[C@@H](C)[C@@H](O)[C@H]1C(=O)N[C@@H](CC)C(=O)N(C)CC(=O)N(C)[C@H](C)C(=O)N[C@@H](C(C)(C)C)C(=O)N(C)[C@@H](C)C(=O)N[C@@H](CC(C)C)C(=O)N[C@H](C)C(=O)N(C)[C@@H](CC(C)C)C(=O)N(C)[C@@H](CC(C)C)C(=O)N(C)[C@@H](C(C)C)C(=O)N1C` [Compound C71] (cyclo([MeBmt][Abu][Sar][dNMeA][Tle][NMeA]L[dA][NMeL][NMeL][NMeV])) were −0.05%, more than 5.70 and 100.05%.
With `C/C=C/C[C@@H](C)[C@@H](O)[C@H]1C(=O)N[C@@H](CC)C(=O)N(C)CC(=O)N(C)[C@@H](Cc2ccccc2)C(=O)N[C@@H](C(C)(C)C)C(=O)N(C)[C@@H](C)C(=O)N[C@@H](CC(C)C)C(=O)N[C@H](C)C(=O)N(C)[C@@H](CC(C)C)C(=O)N(C)[C@@H](CC(C)C)C(=O)N(C)[C@@H](C(C)C)C(=O)N1C` [Compound C72] (cyclo([MeBmt][Abu][Sar][NMeF][Tle][NMeA]L[dA][NMeL][NMeL][NMeV])), the “% signal” value is reported as 2.78%, the pIC50 is more than 5.70 and the “% inhibition of CsA binding” value was 97.22%.
Consider `C/C=C/C[C@@H](C)[C@@H](O)[C@H]1C(=O)N[C@@H](CC)C(=O)N(C)CC(=O)N(C)CC(=O)N[C@@H](C(C)(C)C)C(=O)N(C)[C@@H](C)C(=O)N[C@@H](CC(C)C)C(=O)N[C@H](C)C(=O)N(C)[C@@H](CC(C)C)C(=O)N(C)[C@@H](CC(C)C)C(=O)N(C)[C@@H](C(C)C)C(=O)N1C` [Compound C73] (cyclo([MeBmt][Abu][Sar][Sar][Tle][NMeA]L[dA][NMeL][NMeL][NMeV])), for which the “% signal” value was found to be 0.01%, the pIC50 is more than 5.70 and the “% inhibition of CsA binding” value was determined as 99.99%.
Taken in the same sequence, the figures for `C/C=C/C[C@@H](C)[C@@H](O)[C@H]1C(=O)N[C@@H](CC)C(=O)N(C)CC(=O)N(C)[C@@H](CC(C)C)C(=O)N[C@@H](C(C)(C)C)C(=O)N(C)[C@@H](C)C(=O)N[C@@H](CC(C)C)C(=O)N[C@H](C)C(=O)N(C)[C@@H](CC(C)C)C(=O)N(C)[C@@H](CC(C)C)C(=O)N(C)[C@@H](C(C)C)C(=O)N1C` [Compound C74] (cyclo([MeBmt][Abu][Sar][NMeL][Tle][NMeA]L[dA][NMeL][NMeL][NMeV])) were 4.92%, more than 5.70 and 95.08%.
`C/C=C/C[C@@H](C)[C@@H](O)[C@H]1C(=O)N[C@@H](CC)C(=O)N(C)CC(=O)N(C)[C@@H]([C@@H](C)O)C(=O)N[C@@H](C(C)(C)C)C(=O)N(C)[C@@H](C)C(=O)N[C@@H](CC(C)C)C(=O)N[C@H](C)C(=O)N(C)[C@@H](CC(C)C)C(=O)N(C)[C@@H](CC(C)C)C(=O)N(C)[C@@H](C(C)C)C(=O)N1C` [Compound C75] (cyclo([MeBmt][Abu][Sar][NMeT][Tle][NMeA]L[dA][NMeL][NMeL][NMeV])): the “% signal” value worked out at 3.88% and the pIC50 is more than 5.70.
Take `C/C=C/C[C@@H](C)[C@@H](O)[C@H]1C(=O)N[C@@H](CC)C(=O)N(C)CC(=O)N(C)[C@@H](Cc2ccc(O)cc2)C(=O)N[C@@H](C(C)(C)C)C(=O)N(C)[C@@H](C)C(=O)N[C@@H](CC(C)C)C(=O)N[C@H](C)C(=O)N(C)[C@@H](CC(C)C)C(=O)N(C)[C@@H](CC(C)C)C(=O)N(C)[C@@H](C(C)C)C(=O)N1C` [Compound C76] (cyclo([MeBmt][Abu][Sar][NMeY][Tle][NMeA]L[dA][NMeL][NMeL][NMeV])): the “% signal” value is 5.09%, the pIC50 is more than 5.70 and the “% inhibition of CsA binding” value amounted to 94.91%.
On to `C/C=C/C[C@@H](C)[C@@H](O)[C@H]1C(=O)N[C@@H](CC)C(=O)N(C)CC(=O)N(C)[C@@H](C(C)C)C(=O)N[C@@H](C(C)(C)C)C(=O)N(C)[C@@H](C)C(=O)N[C@@H](CC(C)C)C(=O)N[C@H](C)C(=O)N(C)[C@@H](CC(C)C)C(=O)N(C)[C@@H](CC(C)C)C(=O)N(C)[C@@H](C(C)C)C(=O)N1C` [Compound C77] (cyclo([MeBmt][Abu][Sar][NMeV][Tle][NMeA]L[dA][NMeL][NMeL][NMeV])), for which the “% signal” value is reported as 0.44% and the negative logarithm of the IC50 (pIC50) was more than 5.70.
In the case of `C/C=C/C[C@@H](C)[C@@H](O)[C@H]1C(=O)N[C@@H](CC)C(=O)N(C)CC(=O)N(C)[C@@H](CCC)C(=O)N[C@@H](C(C)(C)C)C(=O)N(C)[C@@H](C)C(=O)N[C@@H](CC(C)C)C(=O)N[C@H](C)C(=O)N(C)[C@@H](CC(C)C)C(=O)N(C)[C@@H](CC(C)C)C(=O)N(C)[C@@H](C(C)C)C(=O)N1C` [Compound C78] (cyclo([MeBmt][Abu][Sar][NMeNva][Tle][NMeA]L[dA][NMeL][NMeL][NMeV])), the “% signal” value came out at 1.42%, the pIC50 is more than 5.70 and the “% inhibition of CsA binding” value turned out to be 98.58%.
In the same order, the values of `C/C=C/C[C@@H](C)[C@@H](O)[C@H]1C(=O)N[C@@H](CC)C(=O)N(C)CC(=O)N(C)[C@H](C(C)C)C(=O)N[C@@H](C(C)(C)C)C(=O)N(C)[C@@H](C)C(=O)N[C@@H](CC(C)C)C(=O)N[C@H](C)C(=O)N(C)[C@@H](CC(C)C)C(=O)N(C)[C@@H](CC(C)C)C(=O)N(C)[C@@H](C(C)C)C(=O)N1C` [Compound C79] (cyclo([MeBmt][Abu][Sar][dNMeV][Tle][NMeA]L[dA][NMeL][NMeL][NMeV])) are 3.24%, more than 5.70 and 96.76%.
In the same order, the values of `C/C=C/C[C@@H](C)[C@@H](O)[C@H]1C(=O)N[C@@H](CC)C(=O)N(C)CC(=O)N(C)[C@@H](CCCC)C(=O)N[C@@H](C(C)(C)C)C(=O)N(C)[C@@H](C)C(=O)N[C@@H](CC(C)C)C(=O)N[C@H](C)C(=O)N(C)[C@@H](CC(C)C)C(=O)N(C)[C@@H](CC(C)C)C(=O)N(C)[C@@H](C(C)C)C(=O)N1C` [Compound C80] (cyclo([MeBmt][Abu][Sar][NMeNle][Tle][NMeA]L[dA][NMeL][NMeL][NMeV])) are 3.35%, more than 5.70 and 96.65%.
Taken in the same sequence, the figures for `C/C=C/C[C@@H](C)[C@@H](O)[C@H]1C(=O)N[C@@H](CC)C(=O)N(C)CC(=O)N(C)[C@@H]([C@@H](C)CC)C(=O)N[C@@H](C(C)C)C(=O)N(C)[C@@H](C)C(=O)N[C@@H](CC(C)C)C(=O)N[C@H](C)C(=O)N(C)[C@@H](CC(C)C)C(=O)N(C)[C@@H](CC(C)C)C(=O)N(C)[C@@H](C(C)C)C(=O)N1C` [Compound C81] (cyclo([MeBmt][Abu][Sar][NMeI]V[NMeA]L[dA][NMeL][NMeL][NMeV])) were 0.76%, more than 5.70 and 99.24%.
